Columns and labels:
[1] = test system: SK-MEL3; assay: Cytotoxicity against human SK-MEL-3 cells assessed as reduction in cell viability by MTT assay; type: functional, cell-based
[2] = test system: MCF7; assay: Cytotoxicity against human MCF7 cells assessed as reduction in cell viability after 72 hrs by MTT assay; type: functional, cell-based; details: MCF7, 72 h
[3] = test system: SW480; assay: Cytotoxicity against human SW480 cells assessed as reduction in cell viability by MTT assay; type: functional, cell-based
[4] = test system: MCF7; assay: Cytotoxicity against human MCF7 cells assessed as reduction in cell viability by MTT assay; type: functional, cell-based
[5] = test system: EJ; assay: Cytotoxicity against human EJ cells assessed as reduction in cell viability by MTT assay; type: functional, cell-based
[6] = test system: MCF7; assay: Potency index, ratio of IC50 for etoposide to IC50 for test compound for cytotoxicity against human MCF7 cells assessed as reduction in cell viability after 72 hrs by MTT assay; type: functional
[7] = test system: A-431; assay: Cytotoxicity against human A431 cells assessed as reduction in cell viability by MTT assay; type: functional, cell-based
[8] = test system: CAPAN-1; assay: Cytotoxicity against human Capan1 cells assessed as reduction in cell viability; type: functional, cell-based
[9] = test system: CAPAN-1; assay: Potency index, ratio of IC50 for doxorubicin to IC50 for test compound for cytotoxicity against human Capan1 cells assessed as reduction in cell viability; type: functional
[10] = test system: Hep 3B2; assay: Potency index, ratio of IC50 for doxorubicin to IC50 for test compound for cytotoxicity against human Hep3B cells assessed as reduction in cell viability; type: functional
[11] = test system: Hep 3B2; assay: Cytotoxicity against human Hep3B cells assessed as reduction in cell viability; type: functional, cell-based
[12] = test system: HL-60; assay: Potency index, ratio of IC50 for doxorubicin to IC50 for test compound for cytotoxicity against human HL60 cells assessed as reduction in cell viability; type: functional
[13] = test system: HL-60; assay: Cytotoxicity against human HL60 cells assessed as reduction in cell viability; type: functional, cell-based
[14] = test system: L1210; assay: Cytotoxicity against mouse L1210 cells assessed as reduction in cell viability after 24 to 72 hrs by MTT assay; type: functional, cell-based
[15] = test system: HeLa; assay: Cytotoxicity against human HeLa cells assessed as reduction in cell viability after 24 to 72 hrs by MTT assay; type: functional, cell-based
[16] = test system: HL-60; assay: Cytotoxicity against human HL60 cells assessed as reduction in cell viability by MTT assay; type: functional, cell-based
[17] = test system: SMMC-7721; assay: Cytotoxicity against human SMMC7721 cells assessed as reduction in cell viability by MTT assay; type: functional, cell-based
[18] = test system: L1210; assay: Cytotoxicity against mouse L1210 cells assessed as reduction in cell viability by MTT assay; type: functional, cell-based
[19] = test system: CHO; assay: Cytotoxicity against CHO cells assessed as reduction in cell viability by MTT assay; type: cell-based; details: Cricetulus griseus

Compound: CCn1cc(C(=O)O)c(=O)c2cc(F)c(N3CCN(C/C(=N/OC)c4ccc(Cl)s4)CC3)cc21
- IC50 [1]: ≤ 20 µM
- IC50 [2]: 2.5 to 5 µM
- IC50 [3]: ≤ 20 µM
- IC50 [4]: ≤ 20 µM
- IC50 [5]: ≤ 20 µM
- Ratio IC50 [6]: 4.64
- IC50 [7]: ≤ 20 µM

Compound: CN1CCN(c2cc3c(cc2F)c(=O)c(-c2nc4s/c(=C\c5ccc(S(N)(=O)=O)cc5)c(=O)n4n2)cn3C2CC2)CC1
- IC50 [8]: 300 nM
- Ratio IC50 [9]: 2.3 - 5.6
- Ratio IC50 [10]: 2.3 - 5.6
- IC50 [11]: 700 nM
- Ratio IC50 [12]: 2.3 - 5.6
- IC50 [13]: 1500 nM

Compound: CCOC(=O)c1cn(CC)c2c(ccc3n[se]nc32)c1=O
- IC50 [14]: ≤ 100 µM
- IC50 [15]: ≤ 100 µM

Compound: COc1ccc(-c2nnc(CSc3nnc(-c4cn(C5CC5)c5cc(N6CCN(C)CC6)c(F)cc5c4=O)o3)o2)cc1
- IC50 [16]: 1100 to 2800 nM
- IC50 [17]: 1100 to 2800 nM
- IC50 [18]: 1100 to 2800 nM
- IC50 [19]: 1100 to 2800 nM

From ChEMBL document CHEMBL4613209, “Quinolone hybrids and their anti-cancer activities: An overview” (Eur J Med Chem, 2019)
